ChEMBL document CHEMBL4420076, “Amylin and calcitonin receptor agonist” (2017)
Peptide text beside a SMILES is read from it. * marks the point of attachment. C18 diacid = O=C(O)CCCCCCCCCCCCCCCCC(=O)*

How the values were obtained:
[1] = Solubility in 100 mM bistrispropane buffer at pH 6.5 incubated for 18 hrs by UPLC analysis; assay type: physicochemical
[2] = Solubility in 100 mM bistrispropane buffer at pH 7.5 incubated for 18 hrs by UPLC analysis; assay type: physicochemical
[3] = Solubility in 100 mM bistrispropane buffer at pH 6.0 incubated for 18 hrs by UPLC analysis; assay type: physicochemical
[4] = Solubility in 100 mM glycylglycine buffer at pH 5.0 incubated for 18 hrs by UPLC analysis; assay type: physicochemical
[5] = Solubility in 100 mM bistrispropane buffer at pH 7.0 incubated for 18 hrs by UPLC analysis; assay type: physicochemical
[6] = Solubility in 100 mM glycylglycine buffer at pH 3.0 incubated for 18 hrs by UPLC analysis; assay type: physicochemical
[7] = target: T1, Amylin receptor AMY3; CALCR/RAMP3 (Homo sapiens, UniProt O60896+P30988); assay: Displacement of [125I]-labeled rat amylin from human amylin receptor expressed in BHK tkts13 whole cells co-expressing RAMP3 incubated for 60 mins by scintillation proximity assay; assay type: cell-based
T1 sequence (P30988 whole entry): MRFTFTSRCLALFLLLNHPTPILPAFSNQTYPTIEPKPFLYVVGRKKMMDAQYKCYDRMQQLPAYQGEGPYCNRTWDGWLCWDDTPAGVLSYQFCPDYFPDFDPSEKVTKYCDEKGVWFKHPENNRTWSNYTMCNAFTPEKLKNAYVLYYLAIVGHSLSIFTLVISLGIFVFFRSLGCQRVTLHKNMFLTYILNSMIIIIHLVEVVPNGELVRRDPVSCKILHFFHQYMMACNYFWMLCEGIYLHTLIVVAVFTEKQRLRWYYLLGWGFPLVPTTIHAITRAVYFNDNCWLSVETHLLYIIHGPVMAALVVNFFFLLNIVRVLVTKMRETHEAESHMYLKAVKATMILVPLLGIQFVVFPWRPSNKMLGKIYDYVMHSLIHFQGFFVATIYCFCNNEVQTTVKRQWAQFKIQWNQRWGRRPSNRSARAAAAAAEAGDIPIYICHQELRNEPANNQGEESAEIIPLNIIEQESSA
T1 sequence (O60896 whole entry): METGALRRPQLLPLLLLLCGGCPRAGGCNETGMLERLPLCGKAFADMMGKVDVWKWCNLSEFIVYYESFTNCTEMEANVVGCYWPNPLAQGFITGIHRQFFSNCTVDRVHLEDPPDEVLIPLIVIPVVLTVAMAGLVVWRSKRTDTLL

[8] = target: T1, Amylin receptor AMY3; CALCR/RAMP3; assay: Agonist activity at human amylin receptor expressed in BHK570 cells co-expressing RAMP3 assessed as increase in intracellular cAMP concentration incubated for 3 hrs in absence of albumin by CRE luciferase reporter gene assay; assay type: functional, cell-based
[9] = Solubility in 100 mM bistrispropane buffer at pH 8.0 incubated for 18 hrs by UPLC analysis; assay type: physicochemical
[10] = target: T2, Calcitonin receptor (Homo sapiens, UniProt P30988); assay: Agonist activity at human calcitonin receptor expressed in BHK570 cells assessed as increase in intracellular cAMP concentration incubated for 3 hrs in absence of albumin by CRE luciferase reporter gene assay; assay type: functional, cell-based
T2 sequence (P30988 whole entry): T1 sequence (P30988 whole entry)

[11] = Solubility in 100 mM glycylglycine buffer at pH 4.0 incubated for 18 hrs by UPLC analysis; assay type: physicochemical

| Structure (SMILES) | solubility at 18 h [1] | solubility at 18 h [2] | solubility at 18 h [3] | solubility at 18 h [4] | solubility at 18 h [5] | solubility at 18 h [6] | IC50 [7] | EC50 [8] | solubility at 18 h [9] | EC50 [10] | solubility at 18 h [11] |
| --- | --- | --- | --- | --- | --- | --- | --- | --- | --- | --- | --- |
| CC(C)C[C@H](NC(=O)[C@H](C)NC(=O)[C@H](C)NC(=O)[C@@H](NC(=O)[C@H](CO)NC(=O)[C@H](Cc1cnc[nH]1)NC(=O)[C@H](CCC(=O)O)NC(=O)[C@H](CO)NC(=O)[C@H](C)NC(=O)[C@H](CCC(=O)O)NC(=O)CCCCCCCCCCCCCCCCC(=O)O)[C@@H](C)O)C(=O)NCC(=O)N[C@@H](CCCNC(=N)N)C(=O)N[C@@H](CC(C)C)C(=O)N[C@@H](CO)C(=O)N[C@@H](C)C(=O)N[C@@H](CCC(=O)O)C(=O)N[C@@H](CC(C)C)C(=O)N[C@@H](Cc1cnc[nH]1)C(=O)N[C@@H](CCC(=O)O)C(=O)N[C@@H](CC(C)C)C(=O)N[C@@H](C)C(=O)N[C@H](C(=O)N[C@@H](CC(C)C)C(=O)N1CCC[C@H]1C(=O)N[C@@H](CCCNC(=N)N)C(=O)N[C@H](C(=O)N[C@@H](CCC(=O)O)C(=O)N[C@H](C(=O)NCC(=O)N1CCC[C@H]1C(=O)N[C@@H](CCC(=O)O)C(=O)N[C@@H](CO)C(=O)N1CCC[C@H]1C(N)=O)[C@@H](C)O)[C@@H](C)O)[C@@H](C)O ({C18 diacid}-EASEHSTAALGRLSAELHELATLPRTETGPESP-NH2) | ≥ 200 µM | ≥ 200 µM | ≥ 200 µM | ≥ 200 µM | ≥ 200 µM | ≥ 200 µM | 0.832 nM | 0.008 nM | ≥ 200 µM | 0.006 nM | ≥ 200 µM |
| CC[C@H](C)[C@H](NC(=O)[C@H](CCC(=O)O)NC(=O)[C@H](Cc1cnc[nH]1)NC(=O)[C@H](CC(C)C)NC(=O)[C@H](CCC(=O)O)NC(=O)[C@H](C)NC(=O)[C@H](CO)NC(=O)[C@H](CC(C)C)NC(=O)[C@H](CCCNC(=N)N)NC(=O)CNC(=O)[C@H](CC(C)C)NC(=O)[C@H](C)NC(=O)[C@H](C)NC(=O)[C@@H](NC(=O)[C@H](CO)NC(=O)[C@H](CC(C)C)NC(=O)[C@H](CCC(=O)O)NC(=O)[C@H](CO)NC(=O)[C@H](C)NC(=O)[C@H](CCC(=O)O)NC(=O)CCCCCCCCCCCCCCCCC(=O)O)[C@@H](C)O)C(=O)N[C@@H](C)C(=O)N[C@H](C(=O)N[C@@H](CC(C)C)C(=O)N1CCC[C@H]1C(=O)N[C@@H](CCCNC(=N)N)C(=O)N[C@H](C(=O)N[C@@H](CCC(=O)O)C(=O)N[C@H](C(=O)NCC(=O)N1CCC[C@H]1C(=O)N[C@@H](CCC(=O)O)C(=O)N[C@@H](CO)C(=O)N1CCC[C@H]1C(N)=O)[C@@H](C)O)[C@@H](C)O)[C@@H](C)O ({C18 diacid}-EASELSTAALGRLSAELHEIATLPRTETGPESP-NH2) | ≥ 200 µM | ≥ 200 µM | ≥ 200 µM | ≥ 200 µM | ≥ 200 µM | ≥ 200 µM | 0.511 nM | 0.006 nM | ≥ 200 µM | 0.005 nM | ≥ 200 µM |

Continued by falling IC50 [7], values first:

| solubility at 18 h [1] | solubility at 18 h [2] | solubility at 18 h [3] | solubility at 18 h [4] | solubility at 18 h [5] | solubility at 18 h [6] | IC50 [7] | EC50 [8] | solubility at 18 h [9] | EC50 [10] | solubility at 18 h [11] | Structure (SMILES) |
| --- | --- | --- | --- | --- | --- | --- | --- | --- | --- | --- | --- |
| ≥ 200 µM | ≥ 200 µM | ≥ 200 µM | ≥ 200 µM | ≥ 200 µM | ≥ 200 µM | 9 nM | 0.031 nM | ≥ 200 µM | 0.012 nM | ≥ 200 µM | CC(C)C[C@H](NC(=O)[C@H](CCC(=O)O)NC(=O)[C@H](Cc1cnc[nH]1)NC(=O)[C@H](CC(C)C)NC(=O)[C@H](CCC(=O)O)NC(=O)[C@H](C)NC(=O)[C@H](CO)NC(=O)[C@H](CC(C)C)NC(=O)[C@H](CCCNC(=N)N)NC(=O)CNC(=O)[C@H](CC(C)C)NC(=O)[C@@H](NC(=O)[C@H](C)NC(=O)[C@@H](NC(=O)[C@H](CO)NC(=O)[C@H](CC(C)C)NC(=O)[C@H](CCC(=O)O)NC(=O)[C@H](CO)NC(=O)[C@H](C)NC(=O)[C@H](CCC(=O)O)NC(=O)CCCCCCCCCCCCCCCCC(=O)O)[C@@H](C)O)C(C)C)C(=O)N[C@@H](C)C(=O)N[C@H](C(=O)N[C@@H](CC(C)C)C(=O)N1CCC[C@H]1C(=O)N[C@@H](CCCNC(=N)N)C(=O)N[C@H](C(=O)N[C@@H](CCC(=O)O)C(=O)N1CCC[C@H]1C(=O)NCC(=O)N1CCC[C@H]1C(=O)N[C@@H](CCC(=O)O)C(=O)N[C@@H](CO)C(=O)N1CCC[C@H]1C(N)=O)[C@@H](C)O)[C@@H](C)O ({C18 diacid}-EASELSTAVLGRLSAELHELATLPRTEPGPESP-NH2) |
| ≥ 200 µM | ≥ 200 µM | ≥ 200 µM | ≥ 200 µM | ≥ 200 µM | ≥ 200 µM | 1.48 nM | 0.007 nM | ≥ 200 µM | 0.005 nM | ≥ 200 µM | CC[C@H](C)[C@H](NC(=O)[C@H](CCC(=O)O)NC(=O)[C@H](C)NC(=O)[C@H](CO)NC(=O)[C@H](CC(C)C)NC(=O)[C@H](CCCNC(=N)N)NC(=O)CNC(=O)[C@H](CC(C)C)NC(=O)[C@H](C)NC(=O)[C@H](C)NC(=O)[C@@H](NC(=O)[C@H](CO)NC(=O)[C@H](CC(C)C)NC(=O)[C@H](CCC(=O)O)NC(=O)[C@H](CO)NC(=O)[C@H](C)NC(=O)[C@H](CCC(=O)O)NC(=O)CCCCCCCCCCCCCCCCC(=O)O)[C@@H](C)O)C(=O)N[C@@H](Cc1cnc[nH]1)C(=O)N[C@@H](CCC(=O)O)C(=O)N[C@@H](CC(C)C)C(=O)N[C@@H](C)C(=O)N[C@H](C(=O)N[C@@H](CC(C)C)C(=O)N1CCC[C@H]1C(=O)N[C@@H](CCCNC(=N)N)C(=O)N[C@H](C(=O)N[C@@H](CCC(=O)O)C(=O)N[C@H](C(=O)NCC(=O)N1CCC[C@H]1C(=O)N[C@@H](CCC(=O)O)C(=O)N[C@@H](CO)C(=O)N1CCC[C@H]1C(N)=O)[C@@H](C)O)[C@@H](C)O)[C@@H](C)O ({C18 diacid}-EASELSTAALGRLSAEIHELATLPRTETGPESP-NH2) |
| ≥ 200 µM | ≥ 200 µM | ≥ 200 µM | ≥ 200 µM | ≥ 200 µM | ≥ 200 µM | 1.31 nM | 0.015 nM | ≥ 200 µM | 0.009 nM | ≥ 200 µM | CC(C)C[C@H](NC(=O)[C@H](C)NC(=O)[C@H](C)NC(=O)[C@@H](NC(=O)[C@H](Cc1cnc[nH]1)NC(=O)[C@H](CC(C)C)NC(=O)[C@H](CCC(=O)O)NC(=O)[C@H](CO)NC(=O)[C@H](C)NC(=O)[C@H](CCC(=O)O)NC(=O)CCCCCCCCCCCCCCCCC(=O)O)[C@@H](C)O)C(=O)NCC(=O)N[C@@H](CCCNC(=N)N)C(=O)N[C@@H](CC(C)C)C(=O)N[C@@H](CO)C(=O)N[C@@H](C)C(=O)N[C@@H](CCC(=O)O)C(=O)N[C@@H](CC(C)C)C(=O)N[C@@H](Cc1cnc[nH]1)C(=O)N[C@@H](CCC(=O)O)C(=O)N[C@@H](CC(C)C)C(=O)N[C@@H](C)C(=O)N[C@H](C(=O)N[C@@H](CC(C)C)C(=O)N1CCC[C@H]1C(=O)N[C@@H](CCCNC(=N)N)C(=O)N[C@H](C(=O)N[C@@H](CCC(=O)O)C(=O)N[C@H](C(=O)NCC(=O)N1CCC[C@H]1C(=O)N[C@@H](CCC(=O)O)C(=O)N[C@@H](CO)C(=O)N1CCC[C@H]1C(N)=O)[C@@H](C)O)[C@@H](C)O)[C@@H](C)O ({C18 diacid}-EASELHTAALGRLSAELHELATLPRTETGPESP-NH2) |
